Legend:
[1] = system: hepatitis B virus-producing HepG2.2.15 cells; experiment: Antiviral test: reduction of HBV DNA in HepG2.2.15 cells (dot-blot hybridization); format: cell-based; conditions: HepG2.2.15, 96 h
Protocol: The antiviral action of the compounds according to the invention was investigated by methods based on those described by M. A. Sells et al., Proc. Natl. Acad. Sci. 84, 1005-1009 (1987) and B. E. Korba et al., Antiviral Research 19, 55-70 (1992).
The antiviral tests were carried out in 96-well microtitre plates. The first vertical row of the plate received only growth medium and HepG2.2.15 cells. It served as virus control.
Stock solutions of the test compounds (50 mM) were initially dissolved in DMSO, and further dilutions were prepared in the HepG2.2.15 growth medium. The compounds according to the invention were usually pipetted in a test concentration of 100 μM (1st test concentration) in each case into the second vertical test row of the microtitre plate and subsequently diluted in twofold steps 2^10 times in growth medium+2% by weight fetal calf serum (volume 25 μl).
Each well of the microtitre plate then contained 225 μl of HepG2.2.15 cell suspension (5×10^4 cells/ml) in growth medium+2% by weight of fetal calf serum.
The test mixture was incubated at 37° C. and 5% CO2 (v/v) for 4 days.
The supernatant was then aspirated off and discarded, and the wells received 225 μl of freshly prepared growth medium. The compounds according to the invention were each added anew as 10-fold concentrated solution in a volume of 25 μl. The mixtures were incubated for a further 4 days.
The supernatants/cells were then harvested and sucked by means of a vacuum onto 96-well dot-blot chambers covered with a nylon membrane (in accordance with the manufacturer's information).
After the supernatants or cells had been transferred to the nylon membrane of the blot apparatus (see above), the supernatants of the HepG2.2.15 cells were denatured (1.5 M NaCl/0.5 N NaOH), neutralized (3M NaCl/0.5M Tris HCl, pH 7.5) and washed (2×SSC). The DNA was then baked onto the membrane by incubating the filters at 120° C. for 2-4 hours.
Detection of the viral DNA from the treated HepG2.2.15 cells on the nylon filters was easily carried out with non-radioactive, digoxigenin-labelled hepatitis B-specific DNA probes, each of which was labelled with digoxigenin, purified and employed for the hybridization in accordance with the manufacturer's information.
The prehybridization and hybridization took place in 5×SSC, 1× blocking reagent, 0.1% by weight N-lauroylsarcosine, 0.02% by weight SDS and 100 μg of herring sperm DNA. The prehybridization took place at 60° C. for 30 minutes, and the specific hybridization with 20 to 40 ng/ml of the digoxigenized, denatured HBV-specific DNA took place at 60° C. for 14 hours. The filters were then washed.
The immunological detection of the digoxigenin-labelled DNA took place in accordance with the manufacturer's information:
The filters were washed and prehybridized in a blocking reagent (in accordance with the manufacturer's information). Hybridization was then carried out with an anti-DIG antibody coupled to alkaline phosphatase for 30 minutes. After a washing step, the substrate of alkaline phosphatase, CSPD, was added, incubated with the filters for 5 minutes, then packed in plastic film and incubated at 37° C. for a further 15 minutes.
The chemiluminescence of the hepatitis B-specific DNA signals was visualized by exposing the filters to an X-ray film (incubation depending on signal strength: 10 minutes to 2 hours).
The half-maximum inhibitory concentration (IC-50, 50% inhibitory concentration) was determined as the concentration at which the hepatitis B-specific band was reduced by the compound according to the invention by 50% compared with an untreated sample.

HepG2.2.15 cells = experiment: Cytotoxicity determination in HepG2.2.15 cells; format: cell-based; conditions: 50% cytotoxicity
Source text: Before harvesting the supernatants and/or cells to determine the antiviral effect, the HepG2.2.15 cells were examined under the light microscope or by means of biochemical detection methods (for example Alamar Blue stain or Trypan Blue stain) for cytotoxic changes.
Substance-induced cytotoxic or cytostatic changes in the HepG2.2.15 cells were detected, for example, under the light microscope as changes in cell morphology. Such substance-induced changes in the HepG2.2.15 cells compared with untreated cells were visible, for example, as cytolysis, vacuolation or altered cell morphology.
The tolerability of some of the compounds according to the invention was additionally tested on other host cells such as, for example, HeLa cells, primary human peripheral blood cells or transformed cell lines such as H-9 cells.
As a rule, the compounds according to the invention were tolerated up to concentrations of 10 μM (Tox. −50).

SMILES | IC50 [1] | Tox-50 (HepG2.2.15 cells)
Cc1oncc1C(=O)Nc1ccc(C(F)(F)F)cc1 [Leflunamide, N-(4-trifluoromethylphenyl)-5-methylisoxazole-4-carboxamide, reference compound] | > 70000 nM | 70 μM/l
Cc1cccc(NC(=S)c2c(C)noc2C)c1 [Example 29] | 4000 nM | >100 μM/l
Cc1cc(NC(=O)c2c(C)noc2C)ccc1F [Example 2, N-(4-Fluoro-3-methylphenyl)-3,5-dimethylisoxazole-4-carboxamide] | 200 nM | >100 μM/l
CCCc1onc(C)c1C(=O)Nc1cccc(C)c1 [Example 21] | 1000 nM | >100 μM/l
CCc1onc(C)c1C(=O)Nc1ccc(F)c(Cl)c1 [Example 12] | 500 nM | >100 μM/l
Cc1cc(NC(=O)c2c(C)noc2C(F)(F)F)ccc1F [Example 16] | 750 nM | >100 μM/l

— patent US20030187028A1, “Medicament for viral diseases” (priority 2000, published 2003)
